Consider three compounds from patent US12359182B2, “Polypeptide variants” (Novozymes A/S, priority 2020, dated 2025).

pKi: −log10 of the molar value.

Usually pKi stands for the Ki on a negative log10 scale, so that one unit is a factor of ten.

Assay [1] has as its system Bifidobacterium bifidum lactase of SEQ ID NO: 1, variant G856E. Put plainly: Km at pH 6.5, backbone with Glu at position 856 (purified samples). It is filed as biochemical. Conditions: E856 relative to G856. The source says:
(§1) *Note regarding backbone: Some clones of our template backbone for the site saturation library (SEQ ID NO: 1) contain a G856E mutation, so all substitution variants we describe are in the backbone context of SEQ ID NO: 1 with either Gly or Glu at position 856.

In assay [2] the target is Bifidobacterium bifidum lactase (SEQ ID NO: 1) variant V1D (Bifidobacterium bifidum, UniProt A4K5H9, V33D). The format is biochemical. Conditions: D-(+)-Galactose 80 mM, ONPG 10.66 mM, pH 6.0, 30 min at 23° C., ratio of activity with/without galactose relative to wild type SEQ ID NO: 1 (IF=1.0), above 1 = decreased galactose inhibition. As for the experimental part: (§2) Stop solution is added (Na2CO3, 10% w/v in H2O), and the absorbance at 405 nm is recorded. “Abs405 Galactose sample” is the absorbance for the lactase grown in assay solution, “Abs405 Galactose Blank” is the absorbance for non-inoculated assay solution, “Abs405 Reference sample” is the absorbance for the lactase grown in reference solution, and “Abs405 Reference Blank” is the absorbance for non-inoculated reference solution.
Bifidobacterium bifidum lactase (SEQ ID NO: 1) variant V1D, sequence (A4K5H9 entry or part of it V33D): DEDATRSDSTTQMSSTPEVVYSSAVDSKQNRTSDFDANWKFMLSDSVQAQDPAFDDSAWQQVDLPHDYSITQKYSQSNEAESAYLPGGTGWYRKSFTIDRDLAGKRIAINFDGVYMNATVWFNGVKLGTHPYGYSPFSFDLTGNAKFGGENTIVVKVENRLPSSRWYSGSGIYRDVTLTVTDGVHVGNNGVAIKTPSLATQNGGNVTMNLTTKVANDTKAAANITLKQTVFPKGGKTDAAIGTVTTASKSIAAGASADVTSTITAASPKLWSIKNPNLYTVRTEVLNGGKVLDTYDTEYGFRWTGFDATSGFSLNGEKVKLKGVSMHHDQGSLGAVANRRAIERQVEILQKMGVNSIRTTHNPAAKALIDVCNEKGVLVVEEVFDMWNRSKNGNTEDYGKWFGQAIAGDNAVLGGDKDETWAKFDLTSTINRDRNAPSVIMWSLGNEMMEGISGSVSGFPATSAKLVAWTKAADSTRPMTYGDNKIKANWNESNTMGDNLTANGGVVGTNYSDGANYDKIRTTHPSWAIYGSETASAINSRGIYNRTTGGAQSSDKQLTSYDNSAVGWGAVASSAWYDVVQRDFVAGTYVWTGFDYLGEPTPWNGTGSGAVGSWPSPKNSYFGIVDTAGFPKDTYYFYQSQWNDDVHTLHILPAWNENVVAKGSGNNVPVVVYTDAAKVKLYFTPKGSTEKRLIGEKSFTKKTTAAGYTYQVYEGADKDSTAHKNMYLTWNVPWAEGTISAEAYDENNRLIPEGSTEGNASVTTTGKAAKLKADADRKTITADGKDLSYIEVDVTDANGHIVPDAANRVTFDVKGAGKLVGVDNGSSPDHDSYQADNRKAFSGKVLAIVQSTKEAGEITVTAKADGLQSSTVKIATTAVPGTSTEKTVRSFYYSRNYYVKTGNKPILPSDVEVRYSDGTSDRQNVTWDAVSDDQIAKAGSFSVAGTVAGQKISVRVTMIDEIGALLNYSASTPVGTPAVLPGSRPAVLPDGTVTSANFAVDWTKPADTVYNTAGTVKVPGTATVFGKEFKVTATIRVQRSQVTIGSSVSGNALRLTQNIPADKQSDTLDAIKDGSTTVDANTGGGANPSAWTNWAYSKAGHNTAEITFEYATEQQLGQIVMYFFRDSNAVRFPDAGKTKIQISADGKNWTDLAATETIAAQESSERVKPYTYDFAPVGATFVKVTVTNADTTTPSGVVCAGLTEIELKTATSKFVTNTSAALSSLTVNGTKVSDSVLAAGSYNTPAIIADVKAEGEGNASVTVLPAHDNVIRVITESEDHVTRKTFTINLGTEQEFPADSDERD

Assay [3] addresses Bifidobacterium bifidum lactase (SEQ ID NO: 1) variant V1K (Bifidobacterium bifidum, UniProt A4K5H9, V33K). It is filed as biochemical. Conditions: D-(+)-Galactose 80 mM, ONPG 10.66 mM, pH 6.0, 30 min at 23° C., ratio of activity with/without galactose relative to wild type SEQ ID NO: 1 (IF=1.0), above 1 = decreased galactose inhibition. As for the experimental part: as §2
Assay [4] concerns the target Bifidobacterium bifidum lactase (SEQ ID NO: 1) variant V1R (Bifidobacterium bifidum, UniProt A4K5H9, V33R). It is filed as biochemical. Conditions: D-(+)-Galactose 80 mM, ONPG 10.66 mM, pH 6.0, 30 min at 23° C., ratio of activity with/without galactose relative to wild type SEQ ID NO: 1 (IF=1.0), above 1 = decreased galactose inhibition. On the procedure: as §2
The target of assay [5] is Bifidobacterium bifidum lactase (SEQ ID NO: 1) variant V1F (Bifidobacterium bifidum, UniProt A4K5H9, V33F). The format is biochemical. Conditions: D-(+)-Galactose 80 mM, ONPG 10.66 mM, pH 6.0, 30 min at 23° C., ratio of activity with/without galactose relative to wild type SEQ ID NO: 1 (IF=1.0), above 1 = decreased galactose inhibition. On the procedure:
as §2

Assay [6] addresses Bifidobacterium bifidum lactase (SEQ ID NO: 1) variant E2G (Bifidobacterium bifidum, UniProt A4K5H9, E34G). It is filed as biochemical. Conditions: D-(+)-Galactose 80 mM, ONPG 10.66 mM, pH 6.0, 30 min at 23° C., ratio of activity with/without galactose relative to wild type SEQ ID NO: 1 (IF=1.0), above 1 = decreased galactose inhibition. As for the experimental part:
as §2

Assay [7] deals with Bifidobacterium bifidum lactase, parent, SEQ ID NO: 1 (Bifidobacterium bifidum, UniProt A4K5H9). The assay is described as follows: galactose inhibition assay (GI-IF), ONPG hydrolysis with and without D-(+)-Galactose (80 mM), Abs405. Conditions: ONPG 10.66 mM, MES 100 mM, pH 6.0, 30 min at 23° C., normalized reference. The format is biochemical. As for the experimental part:
as §2

The target of assay [8] is T1, Bifidobacterium bifidum lactase, SEQ ID NO: 1 (G856 backbone) (Bifidobacterium bifidum, UniProt A4K5H9).
T1 construct: purified sample
T1 sequence (A4K5H9 entry or part of it): as the sequence (A4K5H9 entry or part of it V33D) above, with D1V counted along it
Put plainly: biochemical.
Excerpt: as §1

For assay [9], the target named is T2, Bifidobacterium bifidum lactase of SEQ ID NO: 1, variant G856E (Bifidobacterium bifidum, UniProt A4K5H9, G888E).
T2 construct: purified sample
T2 sequence (A4K5H9 33-1336 G888E): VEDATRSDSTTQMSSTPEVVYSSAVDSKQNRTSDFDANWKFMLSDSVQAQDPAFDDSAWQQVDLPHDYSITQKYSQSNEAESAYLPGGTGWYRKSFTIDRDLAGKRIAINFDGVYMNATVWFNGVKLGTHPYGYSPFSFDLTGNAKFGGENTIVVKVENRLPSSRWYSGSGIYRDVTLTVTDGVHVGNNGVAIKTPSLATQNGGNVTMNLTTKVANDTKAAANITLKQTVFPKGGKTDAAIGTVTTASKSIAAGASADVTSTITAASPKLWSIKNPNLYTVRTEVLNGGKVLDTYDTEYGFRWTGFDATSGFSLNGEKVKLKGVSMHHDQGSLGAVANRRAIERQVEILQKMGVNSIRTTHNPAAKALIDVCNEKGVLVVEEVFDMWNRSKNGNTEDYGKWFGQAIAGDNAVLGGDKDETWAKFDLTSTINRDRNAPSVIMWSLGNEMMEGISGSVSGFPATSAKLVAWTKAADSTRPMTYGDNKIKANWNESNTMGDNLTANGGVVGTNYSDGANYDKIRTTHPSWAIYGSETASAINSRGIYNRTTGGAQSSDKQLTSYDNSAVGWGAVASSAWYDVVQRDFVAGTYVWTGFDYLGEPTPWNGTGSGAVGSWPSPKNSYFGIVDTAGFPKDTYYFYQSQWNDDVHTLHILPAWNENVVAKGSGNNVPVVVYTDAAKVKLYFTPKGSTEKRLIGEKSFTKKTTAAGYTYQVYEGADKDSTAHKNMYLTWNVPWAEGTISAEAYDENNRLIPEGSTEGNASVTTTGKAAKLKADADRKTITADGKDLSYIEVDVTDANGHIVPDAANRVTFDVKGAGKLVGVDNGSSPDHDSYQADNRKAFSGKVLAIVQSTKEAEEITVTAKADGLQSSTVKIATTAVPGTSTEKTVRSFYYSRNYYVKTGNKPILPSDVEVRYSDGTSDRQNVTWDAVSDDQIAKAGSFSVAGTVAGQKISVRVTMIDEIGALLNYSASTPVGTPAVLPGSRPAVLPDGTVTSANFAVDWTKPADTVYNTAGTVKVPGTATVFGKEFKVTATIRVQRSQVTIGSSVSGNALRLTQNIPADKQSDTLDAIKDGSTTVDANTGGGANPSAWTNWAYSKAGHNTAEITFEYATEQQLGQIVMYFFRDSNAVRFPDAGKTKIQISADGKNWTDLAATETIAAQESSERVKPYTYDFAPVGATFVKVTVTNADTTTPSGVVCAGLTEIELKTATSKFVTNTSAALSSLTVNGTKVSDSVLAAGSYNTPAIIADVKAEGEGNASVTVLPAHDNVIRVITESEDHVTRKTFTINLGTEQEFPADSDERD
The assay is described as follows: biochemical.
Excerpt: as §1

The subject of assay [10] is Bifidobacterium bifidum lactase of SEQ ID NO: 1, variant G856E. Put plainly: biochemical. Conditions: pH 6.5; E856 relative to G856.
Excerpt: as §1

Bifidobacterium bifidum lactase, parent, SEQ ID NO: 1, sequence (A4K5H9 entry or part of it): as the sequence (A4K5H9 entry or part of it V33D) above, with D1V counted along it
Bifidobacterium bifidum lactase (SEQ ID NO: 1) variant V1F, sequence (A4K5H9 entry or part of it V33F): as the sequence (A4K5H9 entry or part of it V33D) above, with D1F counted along it
Bifidobacterium bifidum lactase (SEQ ID NO: 1) variant V1R, sequence (A4K5H9 entry or part of it V33R): as the sequence (A4K5H9 entry or part of it V33D) above, with D1R counted along it
Bifidobacterium bifidum lactase (SEQ ID NO: 1) variant V1K, sequence (A4K5H9 entry or part of it V33K): as the sequence (A4K5H9 entry or part of it V33D) above, with D1K counted along it
Bifidobacterium bifidum lactase (SEQ ID NO: 1) variant E2G, sequence (A4K5H9 entry or part of it E34G): as the sequence (A4K5H9 entry or part of it V33D) above, with D1V, E2G counted along it

As for `OC[C@H]1O[C@@H](O[C@H]2[C@H](O)[C@@H](O)C(O)O[C@@H]2CO)[C@H](O)[C@@H](O)[C@H]1O` (stereo partly shown) [lactose], the “IF (Km, E856 vs. G856)” value in [1] is 0.98.
Turning to `OC[C@H]1OC(O)[C@H](O)[C@@H](O)[C@H]1O` (stereo partly drawn) [D-(+)-Galactose], the “GI-IF (galactose inhibition assay improvement factor)” value worked out at 1.23 in assay [2]; 1.11 in assay [3]; 1.12 in assay [4]; 1.25 in assay [5]; 1.17 in [6]. For the same compound, the “galactose inhibition improvement factor (GI-IF)” value in assay [7] came to 1.0.
In the case of `OC[C@H]1OC(O)[C@H](O)[C@@H](O)[C@H]1O` (stereo partly drawn) [galactose, D-(+)-Galactose], the pKi in [8] was 1.38; in assay [9], 1.39. Moreover, in assay [10], the “IF (Ki galactose inhibition, E856 vs. G856)” value turned out to be 0.98.
